From patent US7033829B2, “Method to inhibit cell growth using oligonucleotides” (Trustees of Boston University, priority 2000, dated 2006)

Legend:
[1] = system: GADD 45, ERCC 3 and SDI 1 mRNA; experiment: Northern blot of GADD 45, ERCC 3 and SDI 1 in SCC12F cells; assay type: cell-based, human; settings: 100 μM; as early as 24 hours, several days
Method: Paired cultures of SCC12F cells were maintained in a Dulbecco's modified Eagle's Medium-based keratinocyte growth medium (DMEM; GIBCO/BRL, Gaithersburg, Md.) supplemented with 10% fetal calf serum (Hyclone Labs, Logan, Utah) and epidermal growth factor as described (Hollander, M. C. et al., J. Biol. Chem. 268:328–336 (1992)). Pre-confluent cultures were given fresh medium supplemented with either 100 μM T2, or an equal volume of diluent. Cells were collected daily after additions, and processed for total RNA isolation using the Tri-Reagent extraction method (Molecular Research Center, Cincinnati, Ohio) following the protocol of the manufacturer. Ten micrograms of RNA from each sample was gel electrophoresed, transferred to a nylon filter and probed as described previously (Nada, A. et al., Exp. Cell Res. 211:90–98 (1994)). The cDNA for GADD 45 was generated by PCR using primers based on the human GADD 45 gene sequence (Mitsudomi, T. et al., Oncogene 7:171–180 (1992)). The cDNA for ERCC 3 was purchased from the American Type Culture Collection (ATCC, Rockville, Md.). The SDI 1 cDNA was a gift of Dr. J. Smith and has been described previously (Walworth, N.C. and Bernards, R., Science 271:353–356 (1996)).

[2] = system: Human squamous carcinoma cell line SCC12F cells; experiment: Cell growth / cell yield of SCC12F cells (Coulter counter); assay type: cell-based; settings: 100 μM; days 1, 3, 4, 5 after dosage
Method: Human squamous carcinoma cell line SCC12F cells were maintained in primary keratinocyte medium (300 ml DME, 100 ml F-12 nutrient supplement, 50 ml 10× adenine, 50 ml fetal bovine serum, 5 ml penicillin/streptomycin stock, and 0.5 ml of 10 μg/ml epidermal growth factor and hydrocortisone to final concentration of 1.4 μg/ml) and dosed with either water (diluent), 100 μM pTpT (T2, Midland Certified Reagent Company, Midland, Tex.) or 100 μM pdApdA (A2). Cells were harvested before dosing (day 0), and 1, 3, 4, and 5 days after dosage, and were counted by Coulter™ counter. After harvesting, the cells were processed for total RNA isolation and were analyzed by Northern blot. Addition of a control deoxyadenine dinucleotide (pdApdA), a compound very similar to pTpT but not readily dimerized by UV irradiation, and therefore rarely excised during the course of UV-induced DNA repair, has no effect.
In a second experiment, SCC12F cells were cultured as described above. Two or three days after seeding, the preconfluent cultures were given fresh medium supplemented with either 100 μM T2 or diluent as a control. Cells were collected daily by trypsinization and counted by Coulter™ counter. The cell yield in cultures treated with T2 was reduced by […] compared to that of paired control cultures after five days (FIG. 2). This corresponds to 2.3 population doublings in this time for control cells, compared with 1 doubling for T2-treated cells.
pTpT was previously found to inhibit cell cycle progression, at least in part through activation of p53 and subsequent upregulation of the cyclin dependent kinase inhibitor p21. Cultures of the human keratinocyte line SCC12F were treated with pTpT, SEQ ID NO: 1, SEQ ID NO: 6 or diluent alone as a negative control, collected and counted 48 hours later and processed for northern blot analysis of p21 mRNA expression. […] Thus, the sequences of the present invention activate p53 and inhibit cell proliferation similar to the effect of pTpT.
Exposure of keratinocytes to UVB irradiation affects the expression of genes involved in cell cycle arrest, DNA repair and cytokine production. Single-stranded oligonucleotides sharing sequence homology with the telomere 3′ overhang, when introduced into cells, mimic these UV effects. To identify other genes that may be similarly modulated, cells of keratinocyte origin (SCC12F; a human epidermal squamous cell carcinoma line provided by Dr. James Rheinwald of Harvard University) were exposed to solar simulated irradiation (SSR) (20 mJ/cm^2, measured at 285±5 nm), to an 11-base oligonucleotide (pGTTAGGGTTAG; SEQ ID NO:5) homologous to the telomere overhang (T-oligo), or to a complementary sequence as control [pCTAACCCTAAC; (SEQ ID NO:9) control oligonucleotide]. […] These are mitochondrial-transcribed genes whose encoded proteins participate in cellular respiration.

contact hypersensitivity = experiment: Contact hypersensitivity to DNFB (ear swelling); assay type: in vivo, C57B16 mice; settings: 30 μl of 100 μM BID×5d topical to abdominal skin before sensitization
Method: C57B16 mice were subjected to the following treatment prior to sensitization with the allergen DNFB, by topical administration to abdominal skin; no pretreatment, UVB irradiation (200 J/m^2/dx4d), pTpT, pApA, or vehicle alone (30 μl of 100 μM BID×5d).

TNF-α gene = experiment: TNFα promoter CAT reporter transgene in skin; assay type: in vivo, mice; settings: intracutaneous pTpT 100 μM; LPS 1 μg/ml
Method: In another experiment, TNF-α gene activation was measured by utilizing mice carrying a CAT reporter transgene bearing the entire TNFα promoter and 3′-untranslated region. Transgenic mice were subjected to the following treatment prior to skin assay for CAT expression: UVB irradiation (200–700 J/m^2), intracutaneous injection of pTpT (100 μM); lipopolysaccharide (LPS 1 μg/ml) as positive control, or vehicle alone.

Row | Substance | mRNAs for GADD 45, ERCC 3 and SDI 1 [1] | cell growth rate [2] | ear swelling responses to DNFB challenge (contact hypersensitivity) | CAT activity in skin (TNF-α gene)
1 | deoxyadenine dinucleotide [pdApdA, reference compound] | less effective or ineffective | has no effect | 2.5±0.6 | 
2 | lipopolysaccharide [LPS, reference compound] |  |  |  | CAT activity was detected
